Numbers after ± are expanded uncertainties.
Assays:
[1] = 101.33 kPa, Liquid, Vibrating tube method
[2] = molar heat capacity at constant pressure; conditions: 101.33 kPa, Liquid, Small sample (50 mg) DSC
[3] = excess molar enthalpy (molar enthalpy of mixing); xn = mol fraction of the nth substance listed; conditions: 303.15 K, 101.3 kPa, Liquid

| Compound | mass density ([1]; 308.15 K) | molar heat capacity at constant pressure ([2]; 293.15 K) | molar heat capacity at constant pressure ([2]; 298.15 K) | molar heat capacity at constant pressure ([2]; 303.15 K) | molar heat capacity at constant pressure ([2]; 308.15 K) | molar heat capacity at constant pressure ([2]; 313.15 K) | molar heat capacity at constant pressure ([2]; 318.15 K) | mass density ([1]; 293.15 K) | mass density ([1]; 298.15 K) | mass density ([1]; 303.15 K) | mass density ([1]; 313.15 K) | mass density ([1]; 318.15 K) | excess molar enthalpy ([3]; x1 = 0.1023) | excess molar enthalpy ([3]; x1 = 0.2013) | excess molar enthalpy ([3]; x1 = 0.3036) | excess molar enthalpy ([3]; x1 = 0.4004) | excess molar enthalpy ([3]; x1 = 0.4891) | excess molar enthalpy ([3]; x1 = 0.5761) | excess molar enthalpy ([3]; x1 = 0.6659) | excess molar enthalpy ([3]; x1 = 0.8154) |
| --- | --- | --- | --- | --- | --- | --- | --- | --- | --- | --- | --- | --- | --- | --- | --- | --- | --- | --- | --- | --- |
| CCCCn1cc[n+](C)c1.COS(=O)(=O)[O-] [1-butyl-3-methylimidazolium methyl sulfate] | 1200.8 ± 0.4 kg/m3 | 413.7 ± 6.4 J/K/mol | 416.2 ± 6.4 J/K/mol | 418.5 ± 6.5 J/K/mol | 420.9 ± 6.5 J/K/mol | 423.3 ± 6.6 J/K/mol | 425.6 ± 6.6 J/K/mol | 1210.7 ± 0.4 kg/m3 | 1207.4 ± 0.4 kg/m3 | 1204.1 ± 0.4 kg/m3 | 1197.5 ± 0.4 kg/m3 | 1194.2 ± 0.4 kg/m3 | – | – | – | – | – | – | – | – |
| CCCCn1cc[n+](C)c1.O=S(=O)([O-])C(F)(F)F [1-butyl-3-methylimidazolium trifluoromethanesulfonate] | 1289.7 ± 0.5 kg/m3 | 421.6 ± 6.5 J/K/mol | 424.1 ± 6.6 J/K/mol | 426.7 ± 6.6 J/K/mol | 429.5 ± 6.7 J/K/mol | 432.4 ± 6.7 J/K/mol | 435.5 ± 6.7 J/K/mol | 1301.6 ± 0.5 kg/m3 | 1297.6 ± 0.5 kg/m3 | 1293.7 ± 0.5 kg/m3 | 1285.8 ± 0.5 kg/m3 | 1281.9 ± 0.5 kg/m3 | – | – | – | – | – | – | – | – |
| CCCC[n+]1cccc(C)c1.F[B-](F)(F)F [1-butyl-3-methylpyridinium tetrafluoroborate] + O | – | – | – | – | – | – | – | – | – | – | – | – | 0.261 ± 0.00574 kcal/mol | 0.421 ± 0.00884 kcal/mol | 0.514 ± 0.0108 kcal/mol | 0.554 ± 0.0115 kcal/mol | 0.543 ± 0.0112 kcal/mol | 0.497 ± 0.0105 kcal/mol | 0.428 ± 0.00908 kcal/mol | 0.256 ± 0.0055 kcal/mol |

The next lines start with results.

| mass density ([1]; 308.15 K) | molar heat capacity at constant pressure ([2]; 293.15 K) | molar heat capacity at constant pressure ([2]; 298.15 K) | molar heat capacity at constant pressure ([2]; 303.15 K) | molar heat capacity at constant pressure ([2]; 308.15 K) | molar heat capacity at constant pressure ([2]; 313.15 K) | molar heat capacity at constant pressure ([2]; 318.15 K) | Compound | mass density ([1]; 293.15 K) | mass density ([1]; 298.15 K) | mass density ([1]; 303.15 K) | mass density ([1]; 313.15 K) | mass density ([1]; 318.15 K) | excess molar enthalpy ([3]; x1 = 0.1023) | excess molar enthalpy ([3]; x1 = 0.2013) | excess molar enthalpy ([3]; x1 = 0.3036) | excess molar enthalpy ([3]; x1 = 0.4004) | excess molar enthalpy ([3]; x1 = 0.4891) | excess molar enthalpy ([3]; x1 = 0.5761) | excess molar enthalpy ([3]; x1 = 0.6659) | excess molar enthalpy ([3]; x1 = 0.8154) |
| --- | --- | --- | --- | --- | --- | --- | --- | --- | --- | --- | --- | --- | --- | --- | --- | --- | --- | --- | --- | --- |
| 1230.4 ± 0.4 kg/m3 | 392.2 ± 6.1 J/K/mol | 394.4 ± 6.1 J/K/mol | 396.8 ± 6.1 J/K/mol | 399.3 ± 6.2 J/K/mol | 402 ± 6.2 J/K/mol | 404.9 ± 6.3 J/K/mol | CCOS(=O)(=O)[O-].CCn1cc[n+](C)c1 [1-ethyl-3-methylimidazolium ethyl sulfate] | 1240.6 ± 0.4 kg/m3 | 1237.2 ± 0.4 kg/m3 | 1233.8 ± 0.4 kg/m3 | 1227 ± 0.4 kg/m3 | 1223.7 ± 0.4 kg/m3 | – | – | – | – | – | – | – | – |
| 1376.9 ± 0.6 kg/m3 | 361.1 ± 5.6 J/K/mol | 363.2 ± 5.6 J/K/mol | 365.3 ± 5.7 J/K/mol | 367.4 ± 5.7 J/K/mol | 369.6 ± 5.7 J/K/mol | 371.8 ± 5.8 J/K/mol | CCn1cc[n+](C)c1.O=S(=O)([O-])C(F)(F)F [1-ethyl-3-methylimidazolium trifluoromethanesulfonate] | 1389.5 ± 0.6 kg/m3 | 1385.3 ± 0.6 kg/m3 | 1381.1 ± 0.6 kg/m3 | 1372.7 ± 0.6 kg/m3 | 1368.6 ± 0.6 kg/m3 | – | – | – | – | – | – | – | – |
| 994.1 ± 0.3 kg/m3 | 75.4 ± 1.2 J/K/mol | 75.3 ± 1.2 J/K/mol | 75.3 ± 1.2 J/K/mol | 75.2 ± 1.2 J/K/mol | 75.2 ± 1.2 J/K/mol | 75.3 ± 1.2 J/K/mol | O [water] | – | – | – | – | – | – | – | – | – | – | – | – | – |

Source: the NIST ThermoML archive (doi:10.1016/j.jct.2008.10.002)
